Test results published in patent US20050282743A1, “Molecular interactions in cells” (Arbor Vita Corporation, priority 2001, published 2005).
Peptide text beside a SMILES is read from it. * marks the point of attachment. Biotin = O=C1N[C@H]2[C@H](CS[C@H]2CCCCC(=O)*)N1

Tests used:
Format in all cases: binding
[1] = molecular target: T1, PDZ-domain polypeptide (GST/PDZ fusion protein) (Homo sapiens, UniProt O15018); experiment: Apparent affinity (Kd) by titration of PL peptide in the G assay; settings: Peptide Optimal Conc (Kd by titration of the PL peptide), PDZ AIPC, PDZ Domain 1
T1 construct: made in house; host or cells: E. coli (DH5alpha, BL21 or JM109)
In short: (§1)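 A fixed concentration of GST/PDZ fusion protein, 5 ug/ml by default, was mixed in solution with increasing labeled PL peptide (e.g. 0.1 uM-1 mM). Reaction times ranged from 10 minutes to 2 days at 4-37° C. Complexes were separated from free peptide and detected via the label as in the G assay, apparent affinity coming from the saturating concentration.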

[2] = molecular target: T2, PDZ-domain polypeptide (GST/PDZ fusion protein) (Homo sapiens, UniProt Q07157); experiment: as above; settings: Peptide Optimal Conc (Kd by titration of the PL peptide), PDZ ZO-1, PDZ Domain 2
T2 construct: made in house; host or cells: E. coli (DH5alpha, BL21 or JM109)
In short: as §1

[3] = molecular target: T3, PDZ-domain polypeptide (GST/PDZ fusion protein) (Homo sapiens, UniProt Q8NI35); experiment: as above; settings: Peptide Optimal Conc (Kd by titration of the PL peptide), PDZ INADL, PDZ Domain 3
T3 construct: made in house; host or cells: E. coli (DH5alpha, BL21 or JM109)
In short: as §1

[4] = molecular target: T4, PDZ-domain polypeptide (GST/PDZ fusion protein) (Homo sapiens, UniProt Q9C0E4); experiment: as above; settings: Peptide Optimal Conc (Kd by titration of the PL peptide)
T4 construct: made in house; host or cells: E. coli (DH5alpha, BL21 or JM109)
In short: as §1

[5] = molecular target: T5, PDZ-domain polypeptide (GST/PDZ fusion protein) (Homo sapiens, UniProt Q9HD26); experiment: as above; settings: Peptide Optimal Conc (Kd by titration of the PL peptide), PDZ PIST, PDZ Domain 1
T5 construct: made in house; host or cells: E. coli (DH5alpha, BL21 or JM109)
In short: as §1

[6] = molecular target: T6, PDZ-domain polypeptide (GST/PDZ fusion protein) (Homo sapiens, UniProt Q13796); experiment: as above; settings: PDZ hAPXL, PDZ Domain 1; read-out: Peptide Optimal Conc (non-zero value: Kd by titration of the PL peptide)
T6 construct: made in house; host or cells: E. coli (DH5alpha, BL21 or JM109)
In short: as §1

[7] = molecular target: T7, PDZ-domain polypeptide (GST/PDZ fusion protein) (Homo sapiens, UniProt Q969H4); experiment: as above; settings: PDZ Connector Enhancer, PDZ Domain 1; Protein Optimal Conc 5
T7 construct: made in house; host or cells: E. coli (DH5alpha, BL21 or JM109)
In short: as §1

[8] = molecular target: T8, PDZ-domain polypeptide (GST/PDZ fusion protein) (Homo sapiens, UniProt O14907); experiment: as above; settings: PDZ TIP1, PDZ Domain 1; titration of the PL peptide; read-out: Peptide Optimal Conc (Kd, dissociation constant)
T8 construct: made in house; host or cells: E. coli (DH5alpha, BL21 or JM109)
In short: as §1

[9] = molecular target: T9, PDZ-domain polypeptide (GST/PDZ fusion protein) (Homo sapiens, UniProt Q14160); experiment: as above; settings: PDZ KIAA0147, PDZ Domain 3; read-out: Peptide Optimal Conc (Kd by titration of the PL peptide)
T9 construct: made in house; host or cells: E. coli (DH5alpha, BL21 or JM109)
In short: as §1

[10] = molecular target: T10, PDZ-domain polypeptide (GST/PDZ fusion protein) (Homo sapiens, UniProt Q96RT1); experiment: as above; settings: PDZ Erbin, PDZ Domain 1; read-out: Peptide Optimal Conc (Kd by titration of the PL peptide)
T10 construct: made in house; host or cells: E. coli (DH5alpha, BL21 or JM109)
In short: as §1

Mint 1 (PDZ Domain 1, 2) = molecular target: T11, Mint 1 (PDZ Domain 1, 2) (Homo sapiens, UniProt Q02410); experiment: G' assay, TABLE 12; settings: A450 nm class of biotinylated PL peptide bound; 0 in conc columns = peptide 10 uM, protein 5 ug/ml
T11 construct: When more than one PDZ domain was cloned, the DNA portion cloned represents the PDZ domains and the cDNA portion located between individual domains; made in house; host or cells: E. coli (DH5alpha, BL21 or JM109)
T11 sequence (Q02410 652-828 limits assumed): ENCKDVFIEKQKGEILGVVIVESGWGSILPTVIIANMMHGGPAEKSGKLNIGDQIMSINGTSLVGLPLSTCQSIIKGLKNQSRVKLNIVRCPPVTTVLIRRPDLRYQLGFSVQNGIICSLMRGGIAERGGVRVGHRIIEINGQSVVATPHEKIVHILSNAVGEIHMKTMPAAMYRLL
In short: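 PL peptide binding to PDZ domain protein, peptide at 10 uM; protein at 5 ug/ml unless another concentration is listed for Kd determination. Bound peptide read at A450 nm and binned into classes 0–5.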

T4 sequence (Q9C0E4 whole entry, the tested form may be a part): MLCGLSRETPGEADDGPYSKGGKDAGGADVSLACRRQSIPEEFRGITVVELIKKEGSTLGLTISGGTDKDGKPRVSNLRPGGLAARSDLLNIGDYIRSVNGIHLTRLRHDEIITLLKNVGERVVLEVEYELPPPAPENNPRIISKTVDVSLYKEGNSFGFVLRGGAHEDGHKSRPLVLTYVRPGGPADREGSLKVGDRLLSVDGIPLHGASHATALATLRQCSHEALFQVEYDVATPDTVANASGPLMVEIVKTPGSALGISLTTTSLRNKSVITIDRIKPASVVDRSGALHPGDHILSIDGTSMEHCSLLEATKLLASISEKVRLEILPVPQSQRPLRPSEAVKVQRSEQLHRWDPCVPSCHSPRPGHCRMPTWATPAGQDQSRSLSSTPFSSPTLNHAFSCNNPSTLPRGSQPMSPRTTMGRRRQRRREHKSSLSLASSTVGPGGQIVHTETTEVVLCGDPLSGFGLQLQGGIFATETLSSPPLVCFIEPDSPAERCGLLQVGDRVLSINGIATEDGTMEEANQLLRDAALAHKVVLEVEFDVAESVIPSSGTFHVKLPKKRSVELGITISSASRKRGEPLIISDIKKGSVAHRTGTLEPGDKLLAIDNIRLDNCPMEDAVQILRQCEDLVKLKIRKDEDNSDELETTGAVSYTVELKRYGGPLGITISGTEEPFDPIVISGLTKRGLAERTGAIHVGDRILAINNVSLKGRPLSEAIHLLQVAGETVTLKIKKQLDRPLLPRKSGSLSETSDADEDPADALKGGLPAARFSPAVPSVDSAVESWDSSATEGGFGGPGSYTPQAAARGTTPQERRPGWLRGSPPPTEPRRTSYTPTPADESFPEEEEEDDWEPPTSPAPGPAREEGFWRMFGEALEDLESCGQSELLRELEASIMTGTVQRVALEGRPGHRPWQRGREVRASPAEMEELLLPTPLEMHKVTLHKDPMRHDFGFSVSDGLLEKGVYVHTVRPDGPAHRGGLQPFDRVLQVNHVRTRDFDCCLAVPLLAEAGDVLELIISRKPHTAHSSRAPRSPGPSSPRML
T3 sequence (Q8NI35 whole entry, the tested form may be a part): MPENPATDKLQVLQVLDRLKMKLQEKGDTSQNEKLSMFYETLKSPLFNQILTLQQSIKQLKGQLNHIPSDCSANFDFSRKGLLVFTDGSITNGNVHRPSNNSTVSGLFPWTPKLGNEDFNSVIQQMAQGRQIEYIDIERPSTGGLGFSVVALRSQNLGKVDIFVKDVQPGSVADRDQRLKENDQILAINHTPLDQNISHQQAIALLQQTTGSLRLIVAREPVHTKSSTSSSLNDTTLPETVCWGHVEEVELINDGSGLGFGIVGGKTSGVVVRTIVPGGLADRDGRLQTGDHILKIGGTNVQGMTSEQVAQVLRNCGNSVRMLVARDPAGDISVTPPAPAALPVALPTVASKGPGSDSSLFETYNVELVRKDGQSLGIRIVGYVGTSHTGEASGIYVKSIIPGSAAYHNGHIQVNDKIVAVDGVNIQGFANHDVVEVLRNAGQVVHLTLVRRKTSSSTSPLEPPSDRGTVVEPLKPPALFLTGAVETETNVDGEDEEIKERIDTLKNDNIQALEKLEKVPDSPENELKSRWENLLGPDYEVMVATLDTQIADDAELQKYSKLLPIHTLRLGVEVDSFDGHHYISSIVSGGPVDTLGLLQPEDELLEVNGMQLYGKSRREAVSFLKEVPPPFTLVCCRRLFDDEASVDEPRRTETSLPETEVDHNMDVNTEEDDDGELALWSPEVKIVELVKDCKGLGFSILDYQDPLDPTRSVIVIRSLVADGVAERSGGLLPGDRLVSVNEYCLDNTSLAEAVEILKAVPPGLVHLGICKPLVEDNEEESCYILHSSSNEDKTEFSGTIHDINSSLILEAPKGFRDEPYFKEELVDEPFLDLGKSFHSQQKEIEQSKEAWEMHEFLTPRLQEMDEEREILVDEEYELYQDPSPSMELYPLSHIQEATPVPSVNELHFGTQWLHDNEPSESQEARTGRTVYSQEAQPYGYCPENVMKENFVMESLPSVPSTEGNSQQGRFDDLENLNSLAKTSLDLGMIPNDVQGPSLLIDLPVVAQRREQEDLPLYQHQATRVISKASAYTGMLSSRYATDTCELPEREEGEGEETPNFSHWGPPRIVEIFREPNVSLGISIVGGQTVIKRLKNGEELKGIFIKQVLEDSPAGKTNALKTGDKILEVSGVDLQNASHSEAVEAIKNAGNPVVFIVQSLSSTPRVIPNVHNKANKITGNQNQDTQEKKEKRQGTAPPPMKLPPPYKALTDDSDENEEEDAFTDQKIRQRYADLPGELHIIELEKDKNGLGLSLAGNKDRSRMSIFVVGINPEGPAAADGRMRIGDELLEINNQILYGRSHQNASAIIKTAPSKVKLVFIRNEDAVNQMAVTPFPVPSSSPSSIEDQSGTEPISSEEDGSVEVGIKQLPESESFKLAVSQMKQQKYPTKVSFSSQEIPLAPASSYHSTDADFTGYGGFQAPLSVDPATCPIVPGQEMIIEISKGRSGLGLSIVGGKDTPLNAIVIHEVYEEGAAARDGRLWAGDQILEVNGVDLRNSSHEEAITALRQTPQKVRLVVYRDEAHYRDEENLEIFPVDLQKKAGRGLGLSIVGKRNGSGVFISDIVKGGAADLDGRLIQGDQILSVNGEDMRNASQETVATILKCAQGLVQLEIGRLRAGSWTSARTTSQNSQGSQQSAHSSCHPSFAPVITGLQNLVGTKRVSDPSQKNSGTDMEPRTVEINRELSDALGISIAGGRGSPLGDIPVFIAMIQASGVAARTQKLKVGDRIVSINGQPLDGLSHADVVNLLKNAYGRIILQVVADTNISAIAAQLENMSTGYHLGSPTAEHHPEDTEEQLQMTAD
T8 sequence (O14907 whole entry, the tested form may be a part): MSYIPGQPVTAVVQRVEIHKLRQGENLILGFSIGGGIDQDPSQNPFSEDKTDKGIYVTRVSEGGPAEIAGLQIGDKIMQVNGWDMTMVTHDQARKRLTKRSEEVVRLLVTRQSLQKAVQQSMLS
T2 sequence (Q07157 whole entry, the tested form may be a part): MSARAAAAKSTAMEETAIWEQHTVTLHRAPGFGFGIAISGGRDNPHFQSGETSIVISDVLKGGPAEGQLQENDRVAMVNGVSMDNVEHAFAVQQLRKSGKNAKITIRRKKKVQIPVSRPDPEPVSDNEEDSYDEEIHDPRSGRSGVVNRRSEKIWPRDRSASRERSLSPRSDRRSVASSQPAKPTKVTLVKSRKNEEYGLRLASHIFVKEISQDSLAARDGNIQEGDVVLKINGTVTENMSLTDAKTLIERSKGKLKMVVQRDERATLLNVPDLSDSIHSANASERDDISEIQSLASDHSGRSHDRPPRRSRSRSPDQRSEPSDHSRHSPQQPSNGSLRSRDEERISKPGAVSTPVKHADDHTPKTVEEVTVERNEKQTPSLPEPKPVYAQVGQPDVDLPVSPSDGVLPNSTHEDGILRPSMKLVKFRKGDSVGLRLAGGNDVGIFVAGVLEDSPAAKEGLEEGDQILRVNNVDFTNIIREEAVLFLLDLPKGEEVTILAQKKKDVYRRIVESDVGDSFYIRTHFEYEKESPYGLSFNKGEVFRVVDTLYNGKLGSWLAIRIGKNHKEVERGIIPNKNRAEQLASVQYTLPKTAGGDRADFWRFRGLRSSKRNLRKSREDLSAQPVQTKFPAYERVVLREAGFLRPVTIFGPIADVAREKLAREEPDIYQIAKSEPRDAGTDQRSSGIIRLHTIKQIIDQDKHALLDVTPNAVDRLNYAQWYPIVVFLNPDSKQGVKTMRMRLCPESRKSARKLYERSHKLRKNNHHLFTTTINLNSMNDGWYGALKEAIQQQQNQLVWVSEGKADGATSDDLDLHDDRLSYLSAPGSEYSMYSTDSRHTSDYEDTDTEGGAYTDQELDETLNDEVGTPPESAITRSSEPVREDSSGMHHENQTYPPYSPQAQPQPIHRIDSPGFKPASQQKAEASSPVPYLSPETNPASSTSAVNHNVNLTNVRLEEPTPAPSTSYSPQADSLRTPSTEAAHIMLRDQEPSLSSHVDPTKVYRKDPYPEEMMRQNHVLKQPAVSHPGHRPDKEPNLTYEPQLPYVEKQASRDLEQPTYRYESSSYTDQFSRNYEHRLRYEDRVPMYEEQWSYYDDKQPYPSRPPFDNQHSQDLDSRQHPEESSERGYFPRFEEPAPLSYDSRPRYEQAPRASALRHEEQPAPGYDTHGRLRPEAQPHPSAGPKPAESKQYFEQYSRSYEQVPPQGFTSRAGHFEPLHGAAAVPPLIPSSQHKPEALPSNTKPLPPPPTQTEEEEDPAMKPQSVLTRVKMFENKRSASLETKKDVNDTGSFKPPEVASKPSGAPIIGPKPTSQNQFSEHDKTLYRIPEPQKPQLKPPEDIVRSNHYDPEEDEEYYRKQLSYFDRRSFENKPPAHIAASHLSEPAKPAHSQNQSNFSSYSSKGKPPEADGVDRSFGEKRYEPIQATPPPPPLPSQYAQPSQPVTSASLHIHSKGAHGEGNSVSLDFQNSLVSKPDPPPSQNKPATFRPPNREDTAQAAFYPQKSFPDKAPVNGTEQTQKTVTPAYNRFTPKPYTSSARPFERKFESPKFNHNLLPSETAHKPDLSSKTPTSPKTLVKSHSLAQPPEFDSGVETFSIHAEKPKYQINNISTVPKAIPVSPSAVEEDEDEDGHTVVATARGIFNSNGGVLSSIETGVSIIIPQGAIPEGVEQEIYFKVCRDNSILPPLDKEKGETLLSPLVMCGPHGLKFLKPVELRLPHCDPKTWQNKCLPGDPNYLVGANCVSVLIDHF

With `CC[C@H](C)[C@H](NC(=O)[C@H](C)NC(=O)[C@H](CC(C)C)NC(=O)[C@H](Cc1c[nH]c2ccccc12)NC(=O)[C@H](Cc1c[nH]cn1)NC(=O)[C@H](CCC(N)=O)NC(=O)[C@H](CC(C)C)NC(=O)[C@H](CCC(N)=O)NC(=O)[C@H](Cc1ccccc1)NC(=O)[C@H](CCC(N)=O)NC(=O)[C@H](CCCNC(=N)N)NC(=O)[C@@H](NC(=O)[C@H](CC(=O)O)NC(=O)[C@H](CCCNC(=N)N)NC(=O)[C@H](CCC(N)=O)NC(=O)[C@H](C)NC(=O)[C@@H](NC(=O)[C@H](CC(C)C)NC(=O)[C@H](Cc1c[nH]cn1)NC(=O)[C@H](Cc1c[nH]cn1)NC(=O)CCCC[C@@H]1SC[C@@H]2NC(=O)N[C@@H]21)C(C)C)[C@@H](C)CC)C(=O)O` [noradrenaline transporter] (Biotin-HHLVAQRDIRQFQLQHWLAI-OH; C-terminus assumed) as the compound, how does the Kd [1] read?
The Kd was 600 nM.

What about the Kd [2] of the same compound?
The Kd was 400 nM.

And the Kd [3]?
Its Kd is 600 nM.

What about the Kd ([4]; PDZ KIAA1719, PDZ Domain 5) of the same compound?
The Kd was 1000 nM.

And the Kd ([4]; PDZ KIAA1719, PDZ Domain 6)?
The Kd was 800 nM.

How did the Kd [5] turn out when `CC[C@H](C)[C@H](NC(=O)[C@H](CC(=O)O)NC(=O)[C@H](CCC(=O)O)NC(=O)[C@H](CCCNC(=N)N)NC(=O)[C@@H](NC(=O)CCCC[C@@H]1SC[C@@H]2NC(=O)N[C@@H]21)[C@@H](C)O)C(=O)N[C@@H](Cc1ccc(O)cc1)C(=O)N[C@H](C(=O)N[C@@H](CC(N)=O)C(=O)N[C@@H](Cc1ccc(O)cc1)C(=O)N1CCC[C@H]1C(=O)N[C@H](C(=O)N[C@@H](Cc1ccccc1)C(=O)N[C@@H](CO)C(=O)N[C@@H](CCCNC(=N)N)C(=O)N[C@@H](CCCNC(=N)N)C(=O)N1CCC[C@H]1C(=O)N[C@@H](CCCCN)C(=O)N[C@H](C(=O)N[C@@H](CCCNC(=N)N)C(=O)N[C@H](C(=O)O)C(C)C)[C@@H](C)O)[C@@H](C)O)C(C)C` [DNAM-1] (Biotin-TREDIYVNYPTFSRRPKTRV-OH; C-terminus assumed) was run?
The Kd was 2500 nM.

How did the Kd [6] turn out when `CC[C@H](C)[C@H](NC(=O)CNC(=O)[C@H](CO)NC(=O)[C@H](Cc1ccccc1)NC(=O)[C@@H](NC(=O)[C@H](CS)NC(=O)CNC(=O)CNC(=O)[C@H](C)NC(=O)[C@@H]1CCCN1C(=O)[C@@H](NC(=O)[C@@H]1CCCN1C(=O)CCCC[C@@H]1SC[C@@H]2NC(=O)N[C@@H]21)[C@@H](C)CC)[C@@H](C)O)C(=O)N[C@@H](Cc1ccccc1)C(=O)N1CCC[C@H]1C(=O)N[C@H](C(=O)N[C@@H](CC(C)C)C(=O)N[C@H](C(=O)N[C@@H](CO)C(=O)N1CCC[C@H]1C(=O)N[C@@H](CC(C)C)C(=O)O)[C@@H](C)O)[C@@H](C)O` [KIA 1481] (Biotin-PIPAGGCTFSGIFPTLTSPL-OH; C-terminus assumed) was run?
The Kd was 600 nM.

Which Kd [7] does the source give for `CC[C@H](C)[C@H](NC(=O)[C@H](CCCCN)NC(=O)[C@@H](NC(=O)[C@H](CO)NC(=O)[C@@H]1CCCN1C(=O)[C@H](Cc1ccccc1)NC(=O)[C@@H](NC(=O)[C@@H](NC(=O)[C@H](CCCNC(=N)N)NC(=O)[C@H](CCC(=O)O)NC(=O)[C@H](CC(C)C)NC(=O)[C@H](CC(C)C)NC(=O)[C@H](CC(C)C)NC(=O)[C@@H](NC(=O)CNC(=O)[C@@H](NC(=O)CCCC[C@@H]1SC[C@@H]2NC(=O)N[C@@H]21)C(C)C)[C@@H](C)O)C(C)C)[C@@H](C)CC)C(C)C)C(=O)N[C@@H](C)C(=O)N[C@H](C(=O)N[C@@H](CC(C)C)C(=O)N[C@H](C(=O)O)C(C)C)[C@@H](C)O` [Adenovirus E4 Type9] here?
The Kd was 100 nM.

With `CC(C)C[C@H](NC(=O)[C@H](CC(=O)O)NC(=O)[C@H](CO)NC(=O)[C@H](CCC(=O)O)NC(=O)CNC(=O)[C@H](Cc1ccc(O)cc1)NC(=O)[C@H](CC(C)C)NC(=O)[C@H](C)NC(=O)[C@H](CO)NC(=O)[C@H](CO)NC(=O)[C@H](Cc1ccccc1)NC(=O)[C@H](C)NC(=O)[C@H](C)NC(=O)[C@H](Cc1ccc(O)cc1)NC(=O)[C@H](CC(=O)O)NC(=O)[C@H](CC(C)C)NC(=O)[C@H](C)NC(=O)CNC(=O)[C@@H]1CCCN1C(=O)[C@@H](NC(=O)CCCC[C@@H]1SC[C@@H]2NC(=O)N[C@@H]21)C(C)C)C(=O)O` [a-actinin 2] (Biotin-VPGALDYAAFSSALYGESDL-OH; C-terminus assumed) as the compound, how does the Kd [8] read?
Its Kd is 1000 nM.

What does the source list for `CSCC[C@H](NC(=O)[C@H](C)NC(=O)[C@H](CCCNC(=N)N)NC(=O)CNC(=O)[C@@H](NC(=O)[C@H](Cc1c[nH]c2ccccc12)NC(=O)[C@H](CCCNC(=N)N)NC(=O)CNC(=O)CCCC[C@@H]1SC[C@@H]2NC(=O)N[C@@H]21)[C@@H](C)O)C(=O)N[C@@H](CO)C(=O)N[C@@H](C)C(=O)N[C@@H](Cc1c[nH]c2ccccc12)C(=O)N[C@@H](CCCCN)C(=O)N1CCC[C@H]1C(=O)N[C@H](C(=O)N[C@@H](CCCNC(=N)N)C(=O)N[C@@H](CCCNC(=N)N)C(=O)N[C@@H](CCC(=O)O)C(=O)N[C@H](C(=O)N[C@@H](CCC(=O)O)C(=O)N[C@H](C(=O)O)C(C)C)[C@@H](C)O)[C@@H](C)O` [HPV E6 #35 (modified)] (Biotin-GRWTGRAMSAWKPTRRETEV-OH; C-terminus assumed)?
Kd [9]: 350 nM; Kd [10]: 400 nM

`CC(C)C[C@H](NC(=O)[C@H](C)NC(=O)[C@@H](NC(=O)[C@@H](NC(=O)[C@H](Cc1c[nH]cn1)NC(=O)[C@H](CC(C)C)NC(=O)CNC(=O)[C@H](CCC(N)=O)NC(=O)CNC(=O)CNC(=O)[C@H](C)NC(=O)[C@H](C)NC(=O)[C@H](CCCNC(=N)N)NC(=O)[C@H](C)NC(=O)[C@H](CO)NC(=O)[C@H](CC(=O)O)NC(=O)[C@H](CC(=O)O)NC(=O)[C@H](Cc1c[nH]c2ccccc12)NC(=O)[C@H](C)NC(=O)CCCC[C@@H]1SC[C@@H]2NC(=O)N[C@@H]21)C(C)C)[C@@H](C)O)C(=O)O` [LPAP] (Biotin-AWDDSARAAGGQGLHVTAL-OH; C-terminus assumed) was tested. Which Classification (Mint 1 (PDZ Domain 1, 2)) did it give?
The Classification was 1 (A450 nm 0-1).
